# Results from patent US5633248A, “Amine compounds, their production and use” (priority 1994, dated 1997).
# Structures can show the parent of a compound that is named as a salt.
# Experiments:
# Human GnRH receptor = molecular target: T1, Human GnRH receptor (Homo sapiens, UniProt P30968); assay: ^125 I-leuprolerin binding inhibition, human GnRH receptor-expressed CHO cell membrane fraction; conditions: 25° C. for 60 minutes, read-out: GnRH-receptor binding inhibitory activity (IC50, μM) Man
# T1 construct: expressed in transfected cells; host or cells: CHO (Chinese hamster ovary) cells, membrane fraction
# T1 sequence (P30968 1-328): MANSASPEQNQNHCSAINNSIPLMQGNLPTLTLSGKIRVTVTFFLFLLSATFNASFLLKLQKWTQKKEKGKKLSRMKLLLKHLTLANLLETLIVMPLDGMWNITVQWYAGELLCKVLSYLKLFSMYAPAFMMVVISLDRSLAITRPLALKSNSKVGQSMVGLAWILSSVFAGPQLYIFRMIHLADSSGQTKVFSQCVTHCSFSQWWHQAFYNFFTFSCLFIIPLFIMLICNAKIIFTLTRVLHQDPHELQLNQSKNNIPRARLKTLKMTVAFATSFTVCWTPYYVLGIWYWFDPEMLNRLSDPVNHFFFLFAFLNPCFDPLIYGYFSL
# Procedure: A tube was filled with 10 μl of an aqueous solution of leuprolerin (3×10^4 M) and lactoperoxidase (0.01 mg/ml) followed by addition of 10 μl of Na^125 I solution (37 MBq). After stirring, 10 μl of 0.001% H2 O2 was added and the reaction was conducted at room temperature for 20 minutes. The reaction was stopped by adding 700 μl of 0.05% TFA and the reaction mixture was subjected to reversed-phase HPLC under the conditions set forth below. ^125 I-leuprolerin was eluted with a retention time of 26-27 minutes. […] To the sediment was added 10 ml of a cell homogenate buffer (10 mM NaHCO3, 5 mM EDTA, pH 7.5) and the mixture was homogenized using a Polytron homogenizer. The homogenate was centrifuged at 400 xg for 15 minutes and the supernatant was transferred to an ultracentrifuge cuvette and centrifuged at 100,000 xg for 1 hour to prepare a membrane fraction pellet. This pellet was suspended in 2 ml of the assay buffer and further centrifuged at 100,000 xg for 1 hour. The membrane fraction recovered as a pellet was resuspended in 20 ml of the assay buffer, distributed into vials, preserved at -80° C., and reconstituted before use. The rat and human membrane fractions prepared under (B) and (D) were respectively diluted with the assay buffer to make 200 μg/ml each and 188 μl aliquots of each dilution were distributed into tubes. The bovine membrane fraction prepared under (C) was diluted with the assay buffer to make 750 μg/ml and 188 μl aliquots of the dilution were distributed into tubes. When the rat anterior pituitary membrane fraction was used, 2 μl of 0.1 mM compound/60% dimethyl sulfoxide (DMSO) and 10 μl of 38 nM ^125 I-leuprolerin were concurrently added. […] For determination of maximum binding, a reaction mixture was prepared by adding 2 μl of 60% DMSO and 10 μl of 38 nM ^125 I-leuprolerin. For determination of non-specific binding, a reaction mixture was prepared using 2 μl of 100 μM leuprolerin/60% DMSO and 10 μl of […] ^125 I-leuprolerin. When the rat and bovine anterior pituitary membrane fractions were used, each reaction was carried out at 4° C. for 90 minutes. On the other hand, when the human GnRH receptor-expressed CHO cell membrane fraction was used, the reaction was conducted at 25° C. for 60 minutes. After completion of the reaction, the reaction mixture was suction-filtered through a polyethyleneimine-treated Whatman glass filter (GF-F) [trademark;whatman]. After filtration, the radioactivity of the residual ^125 I-leuprolerin on the filter was measured using a γ-counter. The computation formula of (TB-SB)/(TB-NSB)×100 (SB=radioactivity bound in the presence of the test compound, TB=maximum amount of radioactivity bound, NSB=amount of radioactivity nonspecifically bound) was calculated to find the binding inhibition rate for the test compound. Moreover, the inhibition rate was determined by varying the concentration of each test compound and the concentration of the compound causing 50% inhibition of binding (IC50 value) was calculated by Hill plot.
# Rat GnRH Receptor = molecular target: T2, Rat GnRH Receptor (Rattus norvegicus, UniProt P30969); assay: ^125 I-leuprolerin binding inhibition, rat anterior pituitary membrane fraction; design: species or system rat (Wistar); conditions: 4° C. for 90 minutes, read-out: GnRH-receptor binding inhibitory activity (IC50, μM) Rat
# T2 construct: from tissue; host or cells: anterior pituitary of male Wistar rats (8 weeks old), membrane fraction
# T2 sequence (P30969 1-327): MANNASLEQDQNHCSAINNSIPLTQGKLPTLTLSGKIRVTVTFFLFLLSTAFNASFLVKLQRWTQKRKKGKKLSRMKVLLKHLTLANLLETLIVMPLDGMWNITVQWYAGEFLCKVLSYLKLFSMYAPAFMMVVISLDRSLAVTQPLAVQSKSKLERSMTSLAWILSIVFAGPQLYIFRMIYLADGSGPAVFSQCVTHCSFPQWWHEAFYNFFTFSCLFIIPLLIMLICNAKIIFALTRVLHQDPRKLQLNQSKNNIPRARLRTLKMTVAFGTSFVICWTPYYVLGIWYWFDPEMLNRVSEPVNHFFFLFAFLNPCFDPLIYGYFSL
# Procedure: A tube was filled with 10 μl of an aqueous solution of leuprolerin (3×10^4 M) and lactoperoxidase (0.01 mg/ml) followed by addition of 10 μl of Na^125 I solution (37 MBq). After stirring, 10 μl of 0.001% H2 O2 was added and the reaction was conducted at room temperature for 20 minutes. The reaction was stopped by adding 700 μl of 0.05% TFA and the reaction mixture was subjected to reversed-phase HPLC under the conditions set forth below. ^125 I-leuprolerin was eluted with a retention time of 26-27 minutes. Forty rats (8 weeks old, male) of Wistar strain were decapitated under no anesthesia and the anterior pituitary isolated from each animal was washed with an ice-cooled homogenate buffer (25 mM Tris (tris(hydroxylmethyl)aminomethane)-HCl, 0.3M sucrose, 1 mM EGTA (ethylene-bis(oxyethylenenitrilo)tetraacetic acid), 0.25 mM PMSF (phenylmethylsulfonyl fluoride), 10 U/ml aprotinin, 1 μg/ml pepstatin, 20 μg/ml leupeptin, 100 μg/ml phosphoramidon, 0.03% sodium azide; pH 7.5). The anterior pituitary was suspended in 2 ml of the same homogenate buffer as above and homogenized using a Polytron homogenizer. The homogenate thus prepared was centrifuged at 700 xg for 15 minutes and the supernatant was transferred to an ultracentrifuge cuvette and further centrifuged at 100,000 xg for 1 hour to provide a membrane fraction pellet. This pellet was suspended in 2 ml of an assay buffer (25 mM Tris-HCl, 1 mM ethylenediaminetetraacetic acid (EDTA), 0.1% bovine serum albumin (BSA), 0.25 mM PMSF, 1 μg/ml pepstatin, 20 μg/ml leupeptin, 100 μg/ml phosphoramidon, 0.03% sodium azide; pH 7.5) and centrifuged at 100,000 xg for 1 hour. The membrane fraction recovered as a pellet was resuspended in 10 ml of the same assay buffer as above, distributed into vials, preserved at -80° C., and reconstituted before use. The rat and human membrane fractions prepared under (B) and (D) were respectively diluted with the assay buffer to make 200 μg/ml each and 188 μl aliquots of each dilution were distributed into tubes. The bovine membrane fraction prepared under (C) was diluted with the assay buffer to make 750 μg/ml and 188 μl aliquots of the dilution were distributed into tubes. When the rat anterior pituitary membrane fraction was used, 2 μl of 0.1 mM compound/60% dimethyl sulfoxide (DMSO) and 10 μl of 38 nM ^125 I-leuprolerin were concurrently added. […] For determination of maximum binding, a reaction mixture was prepared by adding 2 μl of 60% DMSO and 10 μl of 38 nM ^125 I-leuprolerin. For determination of non-specific binding, a reaction mixture was prepared using 2 μl of 100 μM leuprolerin/60% DMSO and 10 μl of […] ^125 I-leuprolerin. When the rat and bovine anterior pituitary membrane fractions were used, each reaction was carried out at 4° C. for 90 minutes. On the other hand, when the human GnRH receptor-expressed CHO cell membrane fraction was used, the reaction was conducted at 25° C. for 60 minutes. After completion of the reaction, the reaction mixture was suction-filtered through a polyethyleneimine-treated Whatman glass filter (GF-F) [trademark;whatman]. After filtration, the radioactivity of the residual ^125 I-leuprolerin on the filter was measured using a γ-counter. The computation formula of (TB-SB)/(TB-NSB)×100 (SB=radioactivity bound in the presence of the test compound, TB=maximum amount of radioactivity bound, NSB=amount of radioactivity nonspecifically bound) was calculated to find the binding inhibition rate for the test compound. Moreover, the inhibition rate was determined by varying the concentration of each test compound and the concentration of the compound causing 50% inhibition of binding (IC50 value) was calculated by Hill plot.
SMILES,IC50 (Human GnRH receptor) [µM],IC50 (Rat GnRH Receptor) [µM]
"COc1cc2c(cc1OC)CC1(CCCCN1CCCC(CCCNC(=O)Cc1ccsc1)(c1ccccc1)c1ccccc1)CC2 (stereo not shown) [II-63, 3,4-Dihydro-6,7-dimethoxy-1'-{4,4-diphenyl-7-[(3-thienylacetyl)amino]heptyl}spiro[naphthalene-2(1H),2'-piperidine] hydrochloride]",0.4,0.001
"COc1cc2c(cc1OC)CC1(CCCCN1CCCC(CCCNC(=O)CCc1ccccc1)(c1ccccc1)c1ccccc1)CC2 (stereo not shown) [II-64, 3,4-Dihydro-6,7-dimethoxy-1'-{4,4-diphenyl-7-[(3-phenylpropionyl)amino]heptyl}spiro[naphthalene-2(1H),2'-piperidine] hydrochloride]",0.2,0.009
"COc1ccc(CCC(=O)NCCCC(CCCN2CCCCC23CCc2cc(OC)c(OC)cc2C3)(c2ccccc2)c2ccccc2)cc1 (stereo not shown) [II-65, 3,4-Dihydro-6,7-dimethoxy-1'-{4,4-diphenyl-7-{[3-(4-methoxyphenyl)propionyl]amino}heptyl}spiro[naphthalene-2(1H),2'-piperidine] hydrochloride]",0.02,0.001

# Continued, values first:
IC50 (Human GnRH receptor) [µM],IC50 (Rat GnRH Receptor) [µM],SMILES
0.3,0.003,"COc1cc2c(cc1OC)CC1(CCCCN1CCCC(CCCNC(=O)Cc1cccc3ccccc13)(c1ccccc1)c1ccccc1)CC2 (stereo not shown) [II-66, 3,4-Dihydro-6,7-dimethoxy-1'-{4,4-diphenyl-7-[(1-naphthylacetyl)amino]heptyl}spiro[naphthalene-2(1H),2'-piperidine] hydrochloride]"
0.4,0.009,"COc1ccc(CC(=O)NCCCC(CCCN2CCCCC23CCc2cc(OC)c(OC)cc2C3)(c2ccc(F)cc2)c2ccc(F)cc2)cc1 (stereo not shown) [II-68, 3,4-Dihydro-6,7-dimethoxy-1'-{4,4-bis(4-fluorophenyl)-7-[(4-methoxyphenylacetyl)amino]heptyl}spiro[naphthalene-2(1H),2'-piperidine] hydrochloride]"
